Active and inactive are the calls of the source.
How the values were obtained:
Type in all cases: functional, cell-based
[1] = system: MOLT-3; experiment: Cytotoxicity against human MOLT3 cells at 50 ug/mL after 72 hrs by XTT assay
[2] = system: A549; experiment: Cytotoxicity against human A549 cells at 50 ug/mL after 72 hrs by MTT assay
[3] = system: HepG2; experiment: Cytotoxicity against human HepG2 cells at 50 ug/mL after 72 hrs by MTT assay
[4] = system: HuCC-A1; experiment: Cytotoxicity against human HuCCa1 cells at 50 ug/mL after 72 hrs by MTT assay

Measured: Activity

CC1(C)C[C@]2(C)COC(=O)[C@H]3OC(=O)[C@]4(O)CC[C@@H]1C324 (some centres undefined)
inactive: all assays above
